Results published in patent publication US12268724B2, “Methods and compositions for the prevention or treatment of Barth Syndrome” (Stealth BioTherapeutics Inc., priority 2013, dated 2025).
Where no end group is shown, it is not given here. [ ]: non-standard residue; d: D form.

Legend:
[1] = system: plasma membrane of several mammalian cell types; settings: cited from earlier work
[2] = system: TAZ1; experiment: TAZ1 mRNA expression in a dog model of heart failure (real-time PCR of LV tissue); type: in vivo; settings: dogs with microembolization-induced heart failure, 0.5 mg/kg once daily subcutaneous, three months, saline control 2.25-fold
Experimental: Twelve dogs were subject to coronary microembolization-induced heart failure (LV ejection fraction ˜30%) as described above in Example 1. Subjects were randomized into D-Arg-2′6′-Dmt-Lys-Phe-NH2-treated and control groups for a three-month trial. Subjects received subcutaneous injections of D-Arg-2′6′-Dmt-Lys-Phe-NH2 (0.5 mg/kg once daily, n=6) or saline (Untreated-HF Control, n=6). RNA was prepared from LV tissue of all subjects at the end of the treatment phase and from the LV of six normal subject controls. Levels of TAZ1 mRNA were determined by real-time PCR. Changes in mRNA levels were expressed as fold reduction using the CT Method, with normalization to a […] (GAPDH) internal control.

[3] = target: mu-opioid receptor (Homo sapiens, UniProt P35372); experiment: Mu-opioid receptor agonist activity; settings: stated in description, no test described
[4] = system: mitochondria; experiment: Electron microscopy of mitochondrial ultrastructure and organization in tissue from cardiac disease subject; type: in vivo
Experimental: A tissue sample from a subject with Barth Syndrome and tissue samples from a subject with cardiac disease was prepared for electron microscopy imaging of the mitochondria using standards known in the art. […] FIG. 3.

mu-opioid receptor, sequence (P35372 whole entry, species assumed): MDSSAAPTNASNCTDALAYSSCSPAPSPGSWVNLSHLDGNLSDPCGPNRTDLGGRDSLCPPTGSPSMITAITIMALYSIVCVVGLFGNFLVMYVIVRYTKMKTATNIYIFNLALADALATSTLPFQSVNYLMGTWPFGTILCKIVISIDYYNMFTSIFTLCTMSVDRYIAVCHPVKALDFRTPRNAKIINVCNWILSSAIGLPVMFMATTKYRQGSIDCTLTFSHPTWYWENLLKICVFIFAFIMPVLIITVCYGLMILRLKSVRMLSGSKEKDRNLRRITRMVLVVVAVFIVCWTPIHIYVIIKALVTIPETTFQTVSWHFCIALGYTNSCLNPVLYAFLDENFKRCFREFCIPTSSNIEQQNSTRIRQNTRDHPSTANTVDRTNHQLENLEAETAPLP

Substance | penetration of the plasma membrane [1] | decrease in TAZ1 mRNA relative to normal subjects (fold reduction, CT Method, normalized to GAPDH) [2] [fold] | mu-opioid receptor agonist activity [3] | ultrastructure of the mitochondria (electron microscopy) ([4]; cardiac disease subject treated with an effective amount, FIG. 4A vs 4B) | organization of the mitochondria (electron microscopy) ([4]; tissue from treated vs not treated cardiac disease subject, FIGS. 5A-5B)
2′, 6′-Dmt-D-Arg-Phe-Lys-NH2 | readily penetrates the plasma membrane of several mammalian cell types in an energy-independent manner |  |  |  | 
D-Arg-2′6′-Dmt-Lys-Phe-NH2 |  | 1.23 | does not have mu-opioid receptor agonist activity | ameliorated the abnormal features of the ultrastructure of the mitochondria | improved organization of the mitochondria
F[dR]FK-NH2 |  |  | does not have mu-opioid receptor agonist activity |  | 
Tyr-D-Arg-Phe-Lys-NH2 |  |  | has mu-opioid receptor agonist activity |  | 
